Experiments:
[1] = target: T1, catalytic domain of human Bub1 (amino acids 704-1085) (Homo sapiens, UniProt O43683); test: Bub1 kinase assay (TR-FRET); type: biochemical; conditions: 10 μM ATP, avg, read-out: Bub1 avg (IC50 [mol/l])
T1 construct: catalytic domain of human Bub1 (amino acids 704-1085); His6 (N); made in house; host or cells: insect cells (Hi5)
Procedure, shortened: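 Readout is the 665/620 nm TR-FRET ratio from anti-phosphoserine antibody, Eu-labelled anti-mouse IgG and streptavidin-XL665, scaled between no-enzyme and uninhibited controls. Reaction: 1 μM biotinylated peptide, 10 μM ATP, 60 min, 22 °C, after 15 min compound preincubation with His6-Bub1 (704-1085, insect-expressed, ~200 ng/ml).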

CDK2/CycE = target: T2, CDK2/CycE (Homo sapiens, UniProt P24941); test: CDK2/CycE kinase assay (TR-FRET); type: biochemical; conditions: avg, read-out: CDK2 avg (IC50 [mol/l])
T2 construct: GST; purchased ProQinase GmbH (Freiburg, Germany); host or cells: insect cells (Sf9)
Procedure, shortened: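 Read-out is a TR-FRET 665/620 nm emission ratio from EDTA-stopped reactions detected with anti-pRB(pSer807/pSer811), Eu-labelled anti-mouse IgG and streptavidin-XL665, scaled between no-enzyme and uninhibited wells. Reaction: Sf9-expressed GST-CDK2/GST-CycE, 15 min compound preincubation, 10 μM ATP, 0.75 μM biotin-peptide, 25 min, 22° C., pH 8.0 Tris buffer.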

T1 sequence (O43683 704-1085): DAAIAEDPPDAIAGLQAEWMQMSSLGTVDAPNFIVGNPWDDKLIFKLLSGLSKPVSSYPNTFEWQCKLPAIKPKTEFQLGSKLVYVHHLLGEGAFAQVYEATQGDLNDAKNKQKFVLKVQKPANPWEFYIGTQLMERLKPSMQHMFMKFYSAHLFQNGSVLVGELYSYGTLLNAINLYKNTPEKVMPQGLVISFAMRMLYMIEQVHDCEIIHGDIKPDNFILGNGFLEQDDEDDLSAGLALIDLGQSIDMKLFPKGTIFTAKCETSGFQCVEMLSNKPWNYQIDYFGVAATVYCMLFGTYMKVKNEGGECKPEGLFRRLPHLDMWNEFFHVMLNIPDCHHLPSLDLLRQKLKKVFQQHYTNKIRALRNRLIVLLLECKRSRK

| Structure (SMILES) | IC50 [1] | IC50 (CDK2/CycE) |
| --- | --- | --- |
| COCCOc1ccc(NC(=O)c2c(C)nsc2Nc2nc3c(C(F)(F)F)cccc3s2)cc1F [Example 1, N-[3-Fluoro-4-(2-methoxyethoxy)phenyl]-3-methyl-5-{[4-(trifluoromethyl)-1,3-benzothiazol-2-yl]amino}-1,2-thiazole-4-carboxamide] | ≥ 20 µM | ≥ 20 µM |
| Cc1nsc(Nc2nc3c(C(F)(F)F)cccc3s2)c1C(=O)Nc1ccc(OCCO)nc1 [Example 2, N-[6-(2-Hydroxyethoxy)pyridin-3-yl]-3-methyl-5-{[4-(trifluoromethyl)-1,3-benzo-thiazol-2-yl]amino}-1,2-thiazole-4-carboxamide] | ≥ 20 µM | ≥ 20 µM |
| COCCOc1ccc(NC(=O)c2c(C)nsc2Nc2nc3c(C(F)(F)F)cccc3s2)cn1 [Example 3, N-[6-(2-Methoxyethoxy)pyridin-3-yl]-3-methyl-5-{[4-(trifluoromethyl)-1,3-benzo-thiazol-2-yl]amino}-1,2-thiazole-4-carboxamide] | ≥ 20 µM |  |
| Cc1nsc(Nc2nc3c(C(F)(F)F)cccc3s2)c1C(=O)Nc1ccc(OCCO)c(F)c1 [Example 4, N-[3-Fluoro-4-(2-hydroxyethoxy)phenyl]-3-methyl-5-{[4-(trifluoromethyl)-1,3-benzothiazol-2-yl]amino}-1,2-thiazole-4-carboxamide] | ≥ 20 µM | ≥ 20 µM |
| Cc1nsc(Nc2cnc(C(F)(F)F)cn2)c1C(=O)Nc1ccc(OC2CCN(C(=O)OC(C)(C)C)CC2)nc1 [Example 5, tert-Butyl 4-[(5-{[(3-methyl-5-{[5-(trifluoromethyl)pyrazin-2-yl]amino}-1,2-thiazol-4-yl)carbonyl]amino}pyridin-2-yl)oxy]piperidine-1-carboxylate] | ≥ 20 µM | ≥ 20 µM |
| Cc1nsc(Nc2cc(C#N)ccn2)c1C(=O)Nc1ccc(OC2CCCNC2)nc1 (stereo not shown) [Example 35, 5-[(4-Cyanopyridin-2-yl)amino]-3-methyl-N-[6-(piperidin-3-yloxy)pyridin-3-yl]-1,2-thiazole-4-carboxamide] | ≥ 20 µM | ≥ 20 µM |
| Cc1nsc(Nc2ccc(C#N)cn2)c1C(=O)Nc1ccc(OC2CCCN(C(=O)OC(C)(C)C)C2)nc1 (stereo not shown) [Example 36, tert-Butyl 3-({5-[({5-[(5-cyanopyridin-2-yl)amino]-3-methyl-1,2-thiazol-4-yl}-carbonyl)amino]pyridin-2-yl}oxy)piperidine-1-carboxylate] | ≥ 20 µM | ≥ 20 µM |
| Cc1nsc(Nc2ccc(C#N)cn2)c1C(=O)Nc1ccc(OC2CCCNC2)nc1 (stereo not shown) [Example 37, 5-[(5-Cyanopyridin-2-yl)amino]-3-methyl-N-[6-(piperidin-3-yloxy)pyridin-3-yl]-1,2-thiazole-4-carboxamide] | ≥ 20 µM | ≥ 20 µM |
| Cc1nsc(Nc2ccc(C#N)cn2)c1C(=O)Nc1ccc(OC2CCCN(CCF)C2)nc1 (stereo not shown) [Example 38, 5-[(5-Cyanopyridin-2-yl)amino]-N-(6-{[1-(2-fluoroethyl)piperidin-3-yl]oxy}pyridin-3-yl)-3-methyl-1,2-thiazole-4-carboxamide] | ≥ 20 µM | ≥ 20 µM |
| Cc1nsc(Nc2ccc(C#N)cn2)c1C(=O)Nc1ccc(OC2CCCN(CC(F)F)C2)nc1 (stereo not shown) [Example 39, 5-[(5-Cyanopyridin-2-yl)amino]-N-(6-{[1-(2,2-difluoroethyl)piperidin-3-yl]oxy}-pyridin-3-yl)-3-methyl-1,2-thiazole-4-carboxamide] | ≥ 20 µM | ≥ 20 µM |
| Cc1nsc(Nc2ccc(C#N)cn2)c1C(=O)Nc1ccc(OC2CCCN(CC(F)(F)F)C2)nc1 (stereo not shown) [Example 40, 5-[(5-Cyanopyridin-2-yl)amino]-3-methyl-N-(6-{[1-(2,2,2-trifluoroethyl)piperidin-3-yl]oxy}pyridin-3-yl)-1,2-thiazole-4-carboxamide] | ≥ 20 µM | ≥ 20 µM |
| Cc1nsc(Nc2cnccn2)c1C(=O)Nc1ccc(OC2CCCN(C(=O)OC(C)(C)C)C2)nc1 (stereo not shown) [Example 41, tert-Butyl 3-{[5-({[3-methyl-5-(pyrazin-2-ylamino)-1,2-thiazol-4-yl]carbonyl}amino)-pyridin-2-yl]oxy}piperidine-1-carboxylate] | ≥ 20 µM | ≥ 20 µM |
| Cc1nsc(Nc2cnc3ccccc3n2)c1C(=O)Nc1ccc(OCCCNC(=O)OC(C)(C)C)nc1 [Example 42, tert-Butyl (3-{[5-({[3-methyl-5-(quinoxalin-2-ylamino)-1,2-thiazol-4-yl]carbonyl}-amino)pyridin-2-yl]oxy}propyl)carbamate] | ≥ 20 µM | ≥ 20 µM |
| Cc1nsc(Nc2cc(C#N)ccn2)c1C(=O)Nc1ccc(OCCCNC(=O)OC(C)(C)C)nc1 [Example 43, tert-Butyl [3-({5-[({5-[(4-cyanopyridin-2-yl)amino]-3-methyl-1,2-thiazol-4-yl}-carbonyl)amino]pyridin-2-yl}oxy)propyl]carbamate] | ≥ 20 µM | ≥ 20 µM |
| Cc1nsc(Nc2cc(C#N)ccn2)c1C(=O)Nc1ccc(OCCCN)nc1 [Example 44, N-[6-(3-Aminopropoxy)pyridin-3-yl]-5-[(4-cyanopyridin-2-yl)amino]-3-methyl-1,2-thiazole-4-carboxamide] | ≥ 20 µM | ≥ 20 µM |
| Cc1nsc(Nc2cc(C#N)ccn2)c1C(=O)Nc1ccc(OCCCNCC(F)F)nc1 [Example 45, 5-[(4-Cyanopyridin-2-yl)amino]-N-(6-{3-[(2,2-difluoroethyl)amino]propoxy}pyridin-3-yl)-3-methyl-1,2-thiazole-4-carboxamide] | ≥ 20 µM | ≥ 20 µM |
| Cc1nsc(Nc2ccc(C#N)cn2)c1C(=O)Nc1ccc(OCCCNC(=O)OC(C)(C)C)nc1 [Example 46, tert-Butyl [3-({5-[({5-[(5-cyanopyridin-2-yl)amino]-3-methyl-1,2-thiazol-4-yl}-carbonyl)amino]pyridin-2-yl}oxy)propyl]carbamate] | ≥ 20 µM | ≥ 20 µM |
| Cc1nsc(Nc2cnccn2)c1C(=O)Nc1ccc(OCCCNC(=O)OC(C)(C)C)nc1 [Example 47, tert-Butyl (3-{[5-({[3-methyl-5-(pyrazin-2-ylamino)-1,2-thiazol-4-yl]carbonyl}-amino)pyridin-2-yl]oxy}propyl)carbamate] | ≥ 20 µM | ≥ 20 µM |
| Cc1nsc(Nc2cnccn2)c1C(=O)Nc1ccc(OCCCN)nc1 [Example 48, N-[6-(3-Aminopropoxy)pyridin-3-yl]-3-methyl-5-(pyrazin-2-ylamino)-1,2-thiazole-4-carboxamide] | ≥ 20 µM | ≥ 20 µM |
| Cc1nsc(Nc2cnc3ccccc3n2)c1C(=O)Nc1cccc(C(=O)OC(C)(C)C)c1 [Example 49, tert-Butyl 3-({[3-methyl-5-(quinoxalin-2-ylamino)-1,2-thiazol-4-yl]carbonyl}amino)-benzoate] | ≥ 20 µM | ≥ 20 µM |
| COC(=O)c1cccc(NC(=O)c2c(C)nsc2Nc2cnc3ccccc3n2)c1 [Example 50, Methyl 3-({[3-methyl-5-(quinoxalin-2-ylamino)-1,2-thiazol-4-yl]carbonyl}amino)-benzoate] | ≥ 20 µM | ≥ 20 µM |
| Cc1nsc(Nc2cnc3ccccc3n2)c1C(=O)Nc1cccc(C(=O)O)c1 [Example 51, 3-({[3-Methyl-5-(quinoxalin-2-ylamino)-1,2-thiazol-4-yl]carbonyl}amino)benzoic acid] | 1.9 µM | ≥ 20 µM |
| Cc1nsc(Nc2cnc3ccccc3n2)c1C(=O)Nc1cccc(C(=O)N2CCOCC2)c1 [Example 52, 3-Methyl-N-[3-(morpholin-4-ylcarbonyl)phenyl]-5-(quinoxalin-2-ylamino)-1,2-thiazole-4-carboxamide] | 9 µM | ≥ 20 µM |
| Cc1nsc(Nc2cnc3ccccc3n2)c1C(=O)Nc1cccc(C(=O)NC(C)(C)C)c1 [Example 53, N-[3-(tert-Butylcarbamoyl)-phenyl]-3-methyl-5-(quinoxalin-2-ylamino)-1,2-thiazole-4-carboxamide] | 9 µM | ≥ 20 µM |
| Cc1nsc(Nc2cnc3ccccc3n2)c1C(=O)Nc1cccc(C(=O)NCC(=O)OC(C)(C)C)c1 [Example 54, tert-Butyl N-[3-({[3-methyl-5-(quinoxalin-2-ylamino)-1,2-thiazol-4-yl]carbonyl}amino)-benzoyl]glycinate] | 16 µM | ≥ 20 µM |
| Cc1nsc(Nc2ccc(C#N)cn2)c1C(=O)Nc1ccc(OC[C@H]2CCN(CC(F)(F)F)C2)nc1 [Example 405, 5-[(5-Cyanopyridin-2-yl)amino]-3-methyl-N-(6-{[(35)-1-(2,2,2-trifluoroethyl)pyrrolidin-3-yl]methoxy}pyridin-3-yl)-1,2-thiazole-4-carboxamide] | > 20 µM |  |
| CCN1CC[C@H](Oc2ccc(NC(=O)c3c(C)nsc3Nc3cnc(C(F)(F)F)cn3)cn2)[C@H](F)C1 [Example 424, N-(6-{[(3R,4S)-1-Ethyl-3-fluoropiperidin-4-yl]oxy}pyridin-3-yl)-3-methyl-5-{[5-(trifluoromethyl)pyrazin-2-yl]amino}-1,2-thiazole-4-carboxamide] | > 20 µM |  |
| Cc1nsc(Nc2ccc(C#N)cn2)c1C(=O)Nc1ccc(Nc2ccc(F)c(F)c2)nc1 [Example 433, 5-[(5-Cyanopyridin-2-yl)amino]-N-{6-[(3,4-difluorophenyl)amino]pyridin-3-yl}-3-methyl-1,2-thiazole-4-carboxamide] | > 20 µM |  |

— patent US20170334899A1, “AMINO-SUBSTITUTED ISOTHIAZOLES” (Bayer Pharma Aktiengesellschaft, priority 2014, published 2017)
